Molecules are shown by their SMILES. “And” between values parts separate entries of the source, which are not always exact repeats. Equal entries are not always repeated.

The values below come from patent US20050171206A1, “Therapeutical use” (priority 2004, published 2005).

In series [1] the test system is SMN full length (SMN-fl) transcripts (SMN2 gene expression) in leukocytes. As to the kind of experiment: SMN full length transcripts in leukocytes by real-time RT-PCR during one week of oral triButyrate (Example 1). It counts as in vivo, human. How it is done:
(§1) Six SMA patients (P1-P6) and three parents (M2, M3, F6) were enrolled for a pilot trial. Four patients had SMA type II (P1-P4). P1 is a child who had lost the ability to sit unaided. P3 is […] and P4 and P5 are both […]. Two patients (P5 and P6) had SMA type III. The trial was approved by the Ethical Committee of the Catholic University. A written informed consent was obtained from all patients/parents. triButyrate®, the sodium salt of phenylbutyrate was administered at 500 mg/kg/d (maximum dose 19 g/d), divided in 6 doses(every 4 hours) for 7 days. Blood samples were taken from patients and parents on day 0 (T0, baseline) and on days 1-4 (T1-T4) and 7 (T7) of drug administration, and from 5 healthy untreated controls on 5 consecutive days (T0-T4). Total RNA was extracted by Trizol from leukocytes immediately after hypotonic lysis of samples.
SMN full length (SMN-fl) transcripts were measured by realtime RT-PCR using ABI-PRISM 7700 Sequence Detector System (Applied Biosystems) as described elsewhere. (Andreassi C, Angelozzi C, Tiziano F D, Vitali T, De Vincenzi E, Boninsegna A, Villanova M, Bertini E, Pini A, Neri G, Brahe C. Eur. J. Hum. Genet. 2004; 12:59-65) Transcripts were amplified at least twice in triplicate or quadruplicate. SMN transcript levels were calculated by comparing SMN versus glyceraldehyde-3-phosphate dehydrogenase transcripts, whose expression is not affected by triButyrate®. (Andreassi C, Angelozzi C, Tiziano F D, Vitali T, De Vincenzi E, Boninsegna A, Villanova M, Bertini E, Pini A, Neri G, Brahe C. Eur. J. Hum. Genet. 2004; 12:59-65) The relative amounts of SMN-fl transcripts in samples obtained from treated patients/parents and untreated controls were normalized versus those of T0.
F of Fisher, ANOVA and T of Student for independent variables tests were performed to assess statistical significance by using Winstat 4.01 and SPSS 10.0.1 for Windows software. P values <0.05 were accepted as significant.
For orientation: In qPCR the cycle at which signal appears reflects the starting amount.

The test system of a further series is SMA patients and parents. Put plainly: Clinical observations and tolerability, pilot trial (Example 1). It counts as in vivo, human. How it is done: as §1
These subjective improvements prompted us to perform myometry in the other four patients on day 0 and 7 (table 1.2).

For series [2], the system named is children with SMA II older than 5 years. As to the kind of experiment: Forced vital capacity by spirometer (Example 2). Format: in vivo, human. Further details: FVC: unit not given here. The conditions noted are these: for FVC: individual children. How it is done:
The sodium salt of phenylbutyrate (triButyrate®) was administered orally in powder or tablets at 500 mg/kg/d (maximum dose 19 g/d), divided in 5 doses (every 4 hours except for an 8 hours night interval). An intermittent schedule (7 days on and 7 days off) was arbitrarily chosen, similarly to a previously reported schedule for treatment of sickle cell disease. (Atweh G F, Sutton M, Nassif I, Boosalis V, Dover G J, Wallen-stein S, Wright E, McMahon L, Stamatoyannopoulos G, Faller D V, Perrine S P Blood.1999;93:1790-97.) When this dosage was tolerated, patients were advised to continue for 9 weeks (5 weeks on and 4 weeks off).
The assessment consisted of a detailed clinical physiotherapy evaluation including the Hammersmith functional motor scale and, in children older than 5 years, assessment of muscle strength and of forced vital capacity.
This was measured using a standard spirometer (Spyroanalyser ST-95, Fukuda Sangyo Co, LTD, Philippines) and using the best of three attempts.

For series [3] the following is noted: cited from earlier work.
For series [4] the following is noted: i.v. administration, non-human primates; cited from earlier work.
Setting [5] is: according to recent publications.

Take `O=C([O-])CCCc1ccccc1.[Na+]` [triButyrate®, Sodium 4-phenylbutyrate]: the “relative SMN-fl transcript levels during administration compared to baseline” value in series [1] (all patients, one or more blood samples) was “significant increase”. Besides, the “Percent SMN-fl transcripts variation versus T0, T1 mean(+-SD)” value in series [1] (day 1 of 500 mg/kg/d oral, leukocytes, individual patients P1-P6 and parents M2, M3, F6, 500 mg/kg/day) was “+53 (0.1) % and −1 (0.0) % and +54 (0.2) % and +68 (0.0) % and +65 (0.1) % and +117 (1.0) % and +280 (0.7) % and +73 (0.0) % and +432 (0.2) %”. Further, in series [1] (day 2 of 500 mg/kg/d oral, leukocytes, individual patients/parents, 500 mg/kg/day), the “Percent SMN-fl transcripts variation versus T0, T2 mean(+-SD)” value is “+184 (0.6) % and +35 (0.3) % and +25 (0.1) % and +14 (0.0) % and −2 (0.0) % and +96 (0.1) % and +27 (0.0) % and +63 (0.1) %”. In addition, the “Percent SMN-fl transcripts variation versus T0, T3 mean(+-SD)” value in series [1] (day 3 of 500 mg/kg/d oral, leukocytes, individual patients/parents, 500 mg/kg/day) was “+7 (0.2) % and +131 (0.5) % and +116 (0.0) % and −37 (0.0) % and +197 (0.7) % and −15 (0.1) % and +21 (0.1) % and +82 (0.2) %”. Moreover, the “Percent SMN-fl transcripts variation versus T0, T4 mean(+-SD)” value in series [1] (day 4 of 500 mg/kg/d oral, leukocytes, individual patients/parents, 500 mg/kg/day) was “+120 (0.4) % and −3 (0.0) % and +21 (0.0) % and +156 (0.2) % and +363 (0.6) % and +387 (0.9) % and −18 (0.2) % and +129 (0.3) % and +190 (0.5) %”. In addition, in series [1] (day 7 of 500 mg/kg/d oral, leukocytes, individual patients/parents, 500 mg/kg/day), the “Percent SMN-fl transcripts variation versus T0, T7 mean(+-SD)” value is “+827 (1.9) % and +155 (0.1) % and −15 (0.4) % and +190 (0.2) % and +71 (0.3) % and +333 (0.5) % and +56 (0.2) %”. Also, in series [1] (in all patients), the “increase in SMN-fl transcripts in at least one blood sample during treatment” value is reported as “more than 100%”. For the same compound, the adverse events result with SMA patients and parents (P6 on day 2 at 18 g/d, resolved after reducing to 12 g/d) was “dizziness and tinnitus”. The tolerability result with SMA patients and parents (all subjects, 500 mg/kg/d for 7 days) is listed as “tolerated the drug well except for P6”. Also, in the series with SMA patients and parents (all subjects, days 0 and 7), the “Full blood counts and liver function tests” value was “did not show significant changes”. Also, in the series on SMA patients and parents (patient P1, severe type II phenotype), the “head and trunk control” value is “slight improvement in head and trunk control”. In addition, the hand tremor result with SMA patients and parents (patient P5 (type III), day 3 of treatment, later complete absence lasting 4 days after end of trial) was “reduction of hand tremor”. Also, the “Forced vital capacity, patients with increase” value in series [2] (4 patients older than 5 years) is given as “clear increase in 3 of the 4”. Also, the FVC in series [2] (T1, 3 weeks) was 0.87 and 1.15 and 0.75 and 1.70. Further, the FVC in series [2] (T2, 9 weeks) is 1.18 and 1.23 and 1.22 and 1.74. Besides, in series [3] (setting [5]), the metabolised to butyrate is listed as about 25% and the “metabolised to sodium phenylacetate” value was “approximately 75%”. The half-life in series [3] (in vivo) is 48 to 60 min. Moreover, in series [4], the “penetration into the cerebrospinal fluid (CSF)” value is “penetrates into the cerebrospinal fluid”.

A word on the half-life: it is the time in which the quantity being followed falls by half.
